{
  "source": "patent US20090041617A1",
  "about": "“PURIFIED HYDROGEN PEROXIDE GAS MICROBIAL CONTROL METHODS AND DEVICES” (priority 2007, published 2009)",
  "key": {"[1]": {"tested_on": "Geobacillus Stearothermophilus", "excerpt": "(§1) The device was subjected to tests designed and implemented by two accredited laboratories to: (a) measure the output of Purified Hydrogen Peroxide Gas (PHPG); (b) confirm that the output was substantially free of ozone; (c) confirm that the output was substantially free of VOC's; (d) measure the efficacy of PHPG against the Feline Calicivirus (an EPA-approved substitute for noroviruses), Methicillin Resistant Staphylococcus Aureous (MRSA), Vancomyacin Resistant Enterococcus Faecalis (VRE), Clostridium Difficile (C-Diff), Geobacillus Stearothermophilus, (a stable bacteria used by the insurance industry to verify successful microbial remediation), and Aspergillus Niger (a common fungus); and (e) test at a variety of ambient relative humidities including 35% to 40% at 70 to 72 degrees Fahrenheit, 56% to 59% at 81 to 85 degrees Fahrenheit, and 98% at 78 degrees Fahrenheit."}, "[2]": {"tested_on": "VRE (ATCC 51575)", "conditions": "for Average CFU/Test carrier (Survivors in the test) / Percent Reduction Compared to Corresponding Natural Die-off / Percent Reduction as Compared to Time Zero Control: PHPG 0.005-0.01 ppm, 35%-40% relative humidity", "excerpt": "as §1\n(§2) In quantitative microbial testing at ATS labs in Eagan, Minn. the following data was collected."}, "[3]": {"tested_on": "A. niger (ATCC 16404)", "conditions": "for Average CFU/Test carrier (Survivors in the test) / Percent Reduction Compared to Corresponding Natural Die-off / Percent Reduction as Compared to Time Zero Control: PHPG 0.005-0.01 ppm, 35%-40% relative humidity", "excerpt": "as §1, §2"}, "[4]": {"tested_on": "Feline Calicivirus (Norovirus substitute)", "conditions": "for Average Virus Infectivity Observed After Exposure / Percent Reduction Compared to Corresponding Natural Die-off / Percent Reduction as Compared to Time Zero Virus Control: PHPG 0.005-0.01 ppm, 35%-40% relative humidity", "excerpt": "as §1, §2"}, "[5]": {"tested_on": "MRSA (ATCC 33592)", "conditions": "for Average CFU/Test carrier (Survivors in the test) / Percent Reduction Compared to Corresponding Natural Die-off / Percent Reduction as Compared to Time Zero Control: PHPG 0.005-0.01 ppm, 35%-40% relative humidity", "excerpt": "as §1, §2"}, "[6]": {"tested_on": "C. difficile (ATCC 700792)", "conditions": "for Average CFU/Test carrier (Survivors in the test) / Percent Reduction Compared to Corresponding Natural Die-off / Percent Reduction as Compared to Time Zero Control: PHPG 0.005-0.01 ppm, 35%-40% relative humidity", "excerpt": "as §1, §2"}, "[7]": {"conditions": "PHPG about 0.005 ppm to about 0.10 ppm in the environment"}},
  "note": "Like-named read-outs stand apart in the source and are kept apart here.",
  "data": [
    {"smiles": "OO", "note": "[PHPG, Purified Hydrogen Peroxide Gas]", "values": [
      {"measurement": "efficacy in words", "setting": "[1]; [7]", "value": "proven effective"},
      {"measurement": "reduction of the bacteria on inoculated chips", "setting": "[1]; several tests, all cases, within a matter of hours", "value": "significant reduction"},
      {"measurement": "Average CFU/Test carrier (Survivors in the test)", "setting": "[2]; 2 hours", "value": "<1 (no survivors) CFU/Test carrier"},
      {"measurement": "Percent Reduction Compared to Corresponding Natural Die-off", "setting": "[2]; 2 hours", "value": ">99.999", "unit": "%"},
      {"measurement": "Percent Reduction as Compared to Time Zero Control", "setting": "[2]; 2 hours", "value": ">99.9999", "unit": "%"},
      {"measurement": "Average CFU/Test carrier (Survivors in the test)", "setting": "[2]; 6 hours", "value": "<1 (no survivors) CFU/Test carrier"},
      {"measurement": "Percent Reduction Compared to Corresponding Natural Die-off", "setting": "[2]; 6 hours", "value": ">99.99", "unit": "%"},
      {"measurement": "Percent Reduction as Compared to Time Zero Control", "setting": "[2]; 6 hours", "value": ">99.9999", "unit": "%"},
      {"measurement": "Average CFU/Test carrier (Survivors in the test)", "setting": "[2]; 24 hours", "value": "<1 (no survivors) CFU/Test carrier"},
      {"measurement": "Percent Reduction Compared to Corresponding Natural Die-off", "setting": "[2]; 24 hours", "value": ">99.9", "unit": "%"},
      {"measurement": "Percent Reduction as Compared to Time Zero Control", "setting": "[2]; 24 hours", "value": ">99.9999", "unit": "%"},
      {"measurement": "efficacy in words", "setting": "[2]; [7]", "value": "proven effective"},
      {"measurement": "Average CFU/Test carrier (Survivors in the test)", "setting": "[3]; 2 hours", "value": "1.9 × 10^5 CFU/ CFU/Carrier"},
      {"measurement": "Percent Reduction Compared to Corresponding Natural Die-off", "setting": "[3]; 2 hours", "value": 13.6, "unit": "%"},
      {"measurement": "Percent Reduction as Compared to Time Zero Control", "setting": "[3]; 2 hours", "value": 19.1, "unit": "%"},
      {"measurement": "Average CFU/Test carrier (Survivors in the test)", "setting": "[3]; 6 hours", "value": "4.67 × 10^4 CFU/ CFU/Carrier"},
      {"measurement": "Percent Reduction Compared to Corresponding Natural Die-off", "setting": "[3]; 6 hours", "value": 81.3, "unit": "%"},
      {"measurement": "Percent Reduction as Compared to Time Zero Control", "setting": "[3]; 6 hours", "value": 80.1, "unit": "%"},
      {"measurement": "Average CFU/Test carrier (Survivors in the test)", "setting": "[3]; 24 hours", "value": "1.2 × 10^4 CFU/ CFU/Carrier"},
      {"measurement": "Percent Reduction Compared to Corresponding Natural Die-off", "setting": "[3]; 24 hours", "value": 90.8, "unit": "%"},
      {"measurement": "Percent Reduction as Compared to Time Zero Control", "setting": "[3]; 24 hours", "value": 94.9, "unit": "%"},
      {"measurement": "efficacy in words", "setting": "[3]; [7]", "value": "proven effective"},
      {"measurement": "efficacy in words", "setting": "[4]; [7]", "value": "proven effective"},
      {"measurement": "Average Virus Infectivity Observed After Exposure", "setting": "[4]; exposure 2 hrs", "value": 4.3, "unit": "log10"},
      {"measurement": "Percent Reduction Compared to Corresponding Natural Die-off", "setting": "[4]; exposure 2 hrs", "value": 96.8, "unit": "%"},
      {"measurement": "Percent Reduction as Compared to Time Zero Virus Control", "setting": "[4]; exposure 2 hrs", "value": 99.5, "unit": "%"},
      {"measurement": "Average Virus Infectivity Observed After Exposure", "setting": "[4]; exposure 6 hrs", "value": 2.3, "unit": "log10"},
      {"measurement": "Percent Reduction Compared to Corresponding Natural Die-off", "setting": "[4]; exposure 6 hrs", "value": 99.8, "unit": "%"},
      {"measurement": "Percent Reduction as Compared to Time Zero Virus Control", "setting": "[4]; exposure 6 hrs", "value": 99.995, "unit": "%"},
      {"measurement": "Percent Reduction Compared to Corresponding Natural Die-off", "setting": "[4]; exposure 24 hrs", "value": 99.8, "unit": "%"},
      {"measurement": "Percent Reduction as Compared to Time Zero Virus Control", "setting": "[4]; exposure 24 hrs", "value": "≧99.9999%"},
      {"measurement": "Average Virus Infectivity Observed After Exposure", "setting": "[4]; exposure 24 hrs, virus detected in only one replicate", "value": "≦0.6 log10"},
      {"measurement": "Average CFU/Test carrier (Survivors in the test)", "setting": "[5]; 2 hours", "value": "<1 (no survivors) CFU/Test carrier"},
      {"measurement": "Percent Reduction Compared to Corresponding Natural Die-off", "setting": "[5]; 2 hours", "value": ">99.9999", "unit": "%"},
      {"measurement": "Percent Reduction as Compared to Time Zero Control", "setting": "[5]; 2 hours", "value": ">99.9999", "unit": "%"},
      {"measurement": "Average CFU/Test carrier (Survivors in the test)", "setting": "[5]; 6 hours", "value": "<1 (no survivors) CFU/Test carrier"},
      {"measurement": "Percent Reduction Compared to Corresponding Natural Die-off", "setting": "[5]; 6 hours", "value": ">99.9999", "unit": "%"},
      {"measurement": "Percent Reduction as Compared to Time Zero Control", "setting": "[5]; 6 hours", "value": ">99.9999", "unit": "%"},
      {"measurement": "Average CFU/Test carrier (Survivors in the test)", "setting": "[5]; 24 hours", "value": "<1 (no survivors) CFU/Test carrier"},
      {"measurement": "Percent Reduction Compared to Corresponding Natural Die-off", "setting": "[5]; 24 hours", "value": ">99.9999", "unit": "%"},
      {"measurement": "Percent Reduction as Compared to Time Zero Control", "setting": "[5]; 24 hours", "value": ">99.9999", "unit": "%"},
      {"measurement": "efficacy in words", "setting": "[5]; [7]", "value": "proven effective"},
      {"measurement": "Average CFU/Test carrier (Survivors in the test)", "setting": "[6]; 2 hours", "value": "2.18 × 10^5 CFU/ CFU/Carrier"},
      {"measurement": "Percent Reduction Compared to Corresponding Natural Die-off", "setting": "[6]; 2 hours", "value": 9.2, "unit": "%"},
      {"measurement": "Percent Reduction as Compared to Time Zero Control", "setting": "[6]; 2 hours", "value": 27.3, "unit": "%"},
      {"measurement": "Average CFU/Test carrier (Survivors in the test)", "setting": "[6]; 6 hours", "value": "1.1 × 10^5 CFU/ CFU/Carrier"},
      {"measurement": "Percent Reduction Compared to Corresponding Natural Die-off", "setting": "[6]; 6 hours", "value": 60.6, "unit": "%"},
      {"measurement": "Percent Reduction as Compared to Time Zero Control", "setting": "[6]; 6 hours", "value": 63.3, "unit": "%"},
      {"measurement": "Average CFU/Test carrier (Survivors in the test)", "setting": "[6]; 24 hours", "value": "7.3 × 10^4 CFU/ CFU/Carrier"},
      {"measurement": "Percent Reduction Compared to Corresponding Natural Die-off", "setting": "[6]; 24 hours", "value": 70.4, "unit": "%"},
      {"measurement": "Percent Reduction as Compared to Time Zero Control", "setting": "[6]; 24 hours", "value": 75.7, "unit": "%"},
      {"measurement": "efficacy in words", "setting": "[6]; [7]", "value": "proven effective"}
    ]}
  ]
}
